Experiments:
[1] = biological target: T1, M2 (Heart) muscarinic receptors (Rattus norvegicus, UniProt P10980); assay: Receptor binding test, [3H]NMS, heart (M2); design: species or system Male Wistar rats; settings: for Selectivity ratio (M1 /M2): ratio of Ki M1 (cortex) to Ki M2 (heart); for Ki: in vitro, rat heart, 0.3 nM [3H]NMS, 40 minutes
T1 construct: The cerebral cortex, heart and salivary glands were removed, washed and homogenised; from tissue; host or cells: rat heart homogenate (Wistar, Chbb: THOM)
T1 sequence (P10980 1-466): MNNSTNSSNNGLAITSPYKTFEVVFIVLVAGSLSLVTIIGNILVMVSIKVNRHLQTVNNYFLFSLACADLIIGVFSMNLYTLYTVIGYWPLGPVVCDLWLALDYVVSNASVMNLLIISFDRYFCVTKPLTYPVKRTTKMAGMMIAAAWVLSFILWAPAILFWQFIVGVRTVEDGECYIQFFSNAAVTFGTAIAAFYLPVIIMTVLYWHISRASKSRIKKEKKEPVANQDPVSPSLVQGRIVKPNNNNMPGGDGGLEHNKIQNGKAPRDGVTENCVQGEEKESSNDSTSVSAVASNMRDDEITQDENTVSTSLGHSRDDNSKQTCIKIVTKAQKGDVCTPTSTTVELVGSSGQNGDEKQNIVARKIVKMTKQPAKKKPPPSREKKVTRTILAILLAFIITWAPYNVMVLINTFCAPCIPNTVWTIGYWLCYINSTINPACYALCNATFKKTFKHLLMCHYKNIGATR

[2] = biological target: T2, M3 (Submandibular gland) muscarinic receptors (Rattus norvegicus, UniProt P08483); assay: Receptor binding test, [3H]NMS, salivary (submandibular) gland (M3); design: species or system Male Wistar rats; settings: in vitro, 0.3 nM [3H]NMS, 40 minutes
T2 construct: The cerebral cortex, heart and salivary glands were removed, washed and homogenised; from tissue; host or cells: rat salivary (submandibular) gland homogenate (Wistar, Chbb: THOM)

[3] = biological target: T3, M1 -receptors of the cortex (Rattus norvegicus, UniProt P08482); assay: Receptor binding test, [3H]pirenzepine, cerebral cortex (M1); design: species or system Male Wistar rats; settings: in vitro, 1 nM [3H]pirenzepine, 90 minutes
T3 construct: The cerebral cortex, heart and salivary glands were removed, washed and homogenised; from tissue; host or cells: rat cerebral cortex homogenate (Wistar, Chbb: THOM)
T3 sequence (P08482 1-460): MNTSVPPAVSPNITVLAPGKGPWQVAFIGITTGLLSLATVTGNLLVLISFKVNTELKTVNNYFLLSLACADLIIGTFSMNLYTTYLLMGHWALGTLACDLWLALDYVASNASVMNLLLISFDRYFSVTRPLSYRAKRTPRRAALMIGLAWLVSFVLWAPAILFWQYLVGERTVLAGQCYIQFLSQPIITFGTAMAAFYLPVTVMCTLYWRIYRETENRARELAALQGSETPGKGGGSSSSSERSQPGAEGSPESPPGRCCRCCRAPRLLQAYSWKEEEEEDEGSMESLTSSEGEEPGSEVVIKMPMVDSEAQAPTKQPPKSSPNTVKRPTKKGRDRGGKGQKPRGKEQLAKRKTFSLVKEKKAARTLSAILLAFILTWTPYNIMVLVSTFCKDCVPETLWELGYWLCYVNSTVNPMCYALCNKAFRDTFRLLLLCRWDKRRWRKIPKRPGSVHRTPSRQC

[4] = test system: arecoline-induced increase in blood pressure; assay: Arecoline test: CNS-penetration, in vivo (rat), reduction in the arecoline-induced increase in blood pressure; settings: i.v.
Protocol: Cerebroavailable antimuscarinics block this central effect. […] The trachea is incubated, the animals are respirated with an air/oxygen mixture (80 breaths per minute). The blood pressure is recorded after canulation of the carotid artery by means of a pressure recorder (Bell and Howell Type 4-327-I). The test substances are administered through the jugular vein ([…]). […] The arecoline is administered (in doses of 0.3 mg/kg) at 15 minute intervals. After 2 comparison values, the test substance is injected in increasing doses 5 minutes before the next administration of arecoline. The results obtained were compared with the average starting values and determined as the percentage inhibition.

[5] = test system: learning-impaired old rats; assay: Effect on the memory in the Morris water maze, learning-impaired 24 months old rats; format: in vivo, rat; settings: 0.2 mg/kg s.c.
Protocol: The tests were carried out using the water maze described by R. G. M. Morris in Learn Motive 12:239-249 (1981) using the test method described therein.
On the first day, rats which were 24 months old and therefore learning-impaired (n=7 per group) were given 0.2 mg/kg of compound D by subcutaneous route whilst another group of these animals were given physiological saline solution (s.c.).

[6] = test system: learning ability and memory performance; settings: Hunter et al., Sutherland et al., Wishaw; cited from earlier work

T2 sequence (P08483 whole entry): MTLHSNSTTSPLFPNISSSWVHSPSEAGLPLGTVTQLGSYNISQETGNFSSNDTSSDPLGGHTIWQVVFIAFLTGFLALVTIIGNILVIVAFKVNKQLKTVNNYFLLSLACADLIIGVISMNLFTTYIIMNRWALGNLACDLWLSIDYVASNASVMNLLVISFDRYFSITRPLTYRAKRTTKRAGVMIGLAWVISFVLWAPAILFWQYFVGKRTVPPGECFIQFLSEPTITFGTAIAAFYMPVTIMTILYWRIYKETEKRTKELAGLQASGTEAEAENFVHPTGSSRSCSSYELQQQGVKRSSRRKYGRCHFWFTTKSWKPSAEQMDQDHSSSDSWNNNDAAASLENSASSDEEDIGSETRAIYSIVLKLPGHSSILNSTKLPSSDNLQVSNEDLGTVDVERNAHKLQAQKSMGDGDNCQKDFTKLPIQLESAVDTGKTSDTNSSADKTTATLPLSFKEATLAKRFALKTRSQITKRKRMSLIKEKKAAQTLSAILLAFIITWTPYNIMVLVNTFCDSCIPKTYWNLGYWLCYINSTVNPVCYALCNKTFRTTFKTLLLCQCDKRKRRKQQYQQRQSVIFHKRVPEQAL

SMILES | Selectivity ratio (M1 /M2) [1] | further results
CCN(CC)CC1CCCCN1CC(=O)N1c2cc(Cl)ccc2C(=O)Nc2cccnc21 (racemic) [Substance K, (±)-9-chloro-11-[[2-[(diethylamino)methyl]-1-piperidinyl]-acetyl]-5,11-dihydro-6H-pyrido[2,3-b]-[1,4]benzodiazepin-6-one] |  | Ki [2]: 759 nM; Ki [1]: 25 nM; Ki [3]: 126 nM
CCN(CCCC1CCN(CC(=O)N2c3ccccc3C(=O)Nc3cccnc32)CC1)C(=O)C(C)(C)CC [Substance A, 5,11-dihydro-11-[[4-[3-[(2,2-dimethyl-1-oxobutyl]-ethylamino]-propyl]-1-piperidinyl]acetyl]-6H-pyrido[2,3-b][1,4]benzodiazepin-6-one] | 20 | 
CN(CCC1CCCN1C)CC(=O)N1c2ccccc2C(=O)Nc2cccnc21 (centres unmarked) [Substance R, 5,11-dihydro-11-[[[2-(1-methyl-2-pyrrolidinyl)-ethyl]-methylamino]acetyl]-6H-pyrido[2,3-b][1,4]-benzodiazepin-6-one] | 2.4 | 
CCCN(CCC)CC1CCCCN1CCNC(=O)N1c2ccccc2C(=O)Nc2cccnc21.CS(=O)(=O)O (centres unmarked) [Substance L, 5,11-dihydro-11-[[[2-[2-[(dipropylamino)methyl]-1-piperidinyl]ethyl]amino]carbonyl]-6H-pyrido[2,3-b]-[1,4]benzodiazepin-6-one methanesulphonate] |  | effect on arecoline-mediated central effects / increase in blood pressure (in words) [4]: had no effect on the increase in blood pressure caused by arecoline
CN1CCN(CC(=O)N2c3ccccc3C(=O)Nc3cccnc32)CC1 [pirenzepine] |  | learning ability and memory performance (literature) [6]: deterioration in learning ability and memory performance
O=C1Nc2cccnc2N(C(=O)CCC#CCN2CCCCC2)c2ccccc21 [Substance J, 5,11-dihydro-11-[1-oxo-6-(1-piperidinyl)-4-hexyn-1-yl]-6H-pyrido[2,3-b][1,4]benzodiazepin-6-one] | 6.6 | 
CCN(CC)CC1CCCCN1CC(=O)N1c2ccccc2C(=O)Nc2cccnc21 (centres unmarked) [Substance H, 11-[[2-[(diethylamino)methyl]-1-piperidinyl]acetyl]-5,11-dihydro-6H-pyrido[2,3-b][1,4]benzodiazepin-6-one] |  | Ki [1]: 79 nM; Ki [3]: 500 nM
O=C1Nc2cccnc2N(C(=O)N2CCCC(CCCN3CCCCC3)C2)c2ccccc21 (centres unmarked) [Substance M, 5,11-dihydro-11-[[3-[3-(1-piperidinyl)-1-propyl]-1-piperidinyl]carbonyl]-6H-pyrido[2,3-b][1,4]benzo-diazepin-6-one] | 6.5 | 
CCN(CC)CC1COCCN1CCCC(=O)N1c2ccccc2C(=O)Nc2cccnc21 (centres unmarked) [Substance Q, 11-[4-[3-[(diethylamino)methyl]-4-morpholinyl]-1-oxo-1-butyl]-5,11-dihydro-6H-pyrido[2,3-b][1,4]-benzodiazepin-6-one] | 2.5 | 
CCCC(C)(C)C(=O)N(CC)CCCCC1CCN(CC(=O)N2c3ccccc3C(=O)Nc3cccnc32)CC1 [Substance C, 5,11-dihydro-11-[[4-[4-[(2,2-dimethyl-1-oxopentyl)-ethylamino]butyl]-1-piperidinyl]acetyl]-6H-pyrido[2,3-b][1,4]benzodiazepin-6-one] | 13 | 
CCCC(C)(C)C(=O)N(CC)CCCC1CCN(CC(=O)N2c3ccccc3C(=O)Nc3cccnc32)CC1 [Substance B, 5,11-dihydro-[[4-[3-[(2,2-dimethyl-1-oxopentyl)-ethylamino]-propyl]-1-piperidinyl]acetyl]-6H-pyrido[2,3-b][1,4]benzodiazepin-6-one] | 10 | 

More lines, main results first:

Selectivity ratio (M1 /M2) [1] | SMILES | further results
5.3 | CN(CCC1CCCCCN1C)CC(=O)N1c2ccccc2C(=O)Nc2cccnc21 (centres unmarked) [Substance S, 5,11-dihydro-11-[[[2-(1-methyl-hexahydro-1H-2-azepinyl)-ethyl]methylamino]acetyl]-6H-pyrido[2,3-b][1,4]benzodiazepin-6-one] | 
35 | CCCC(C)(C)C(=O)N(CC)CCCC1CCN(CC(=O)N2c3ccc(Cl)cc3C(=O)Nc3cccnc32)CC1 [Substance D, 5,11-dihydro-8-chloro-11-[[4-[3-[(2,2-dimethyl-1-oxopentyl)-ethylamino]propyl]-1-piperidinyl]-acetyl]-6H-pyrido[2,3-b][1,4]benzodiazepin-6-one] | memory performance versus young control rats ([5]; fourth day, 24 months old rats, n=7): reached the same level as the control groups of young rats; memory performance compared with saline-treated learning-impaired old rats ([5]; observed 4 days, FIG. 1): improved memory performance; reduction of latency period in Morris water maze ([5]; second day, 24 months old rats, n=7): approximately 50%
4.6 | Cc1scc2c1N(C(=O)CCC#CCN1CCCCCC1)c1ccccc1NC2=O [Substance P, 4,9-dihydro-3-methyl-4-[6-(hexahydro-1H-1-azepinyl)-1-oxo-4-hexyn-1-yl]-10H-thieno[3,4-b][1,5]benzodi-azepin-10-one] | 
24 | CCN(CCCC1CCN(CC(=O)N2c3ccc(C)cc3C(=O)Nc3cccnc32)CC1)C(=O)C(C)(C)CC [Substance G, 5,11-dihydro-8-methyl-11-[[4-[3-[(2,2-dimethyl-1-oxobutyl)ethylamino]propyl]-1-piperidinyl]acetyl]-6H-pyrido[2,3-b][1,4]benzodiazepin-6-one] | 
10 | CCN(CCCC1CCN(CC(=O)N2c3ccc(C)cc3C(=O)Nc3cccnc32)CC1)C(=O)C(C)(C)C [Substance E, 5,11-dihydro-8-methyl-11-[[4-[3-[(2,2-dimethyl-1-oxopropyl)-ethylamino]propyl]-1-piperidinyl]acetyl]-6H-pyrido[2,3-b][,1,4]benzodiazepin-6-one] | 
14 | CCN(CCCC1CCN(CC(=O)N2c3ccccc3C(=O)Nc3cccnc32)CC1)C(=O)C(C)(C)C [Substance F, 5,11-dihydro-11-[[4-[3-[(2,2-dimethyl-1-oxopropyl)-ethylamino]propyl]-1-piperidinyl]acetyl]-6H-pyrido[2,3-b][1,4]benzodiazepin-6-one] | 
